From patent US20170197935A1, “INHIBITORS OF DNA GYRASE FOR THE TREATMENT OF BACTERIAL INFECTIONS” (Vitas Pharma Research Private Limited, priority 2012, published 2017)
In brackets after ≈: the same amount, converted by molar mass.

How the values were obtained:
Format in all cases: cell-based
E. coli (ATCC 25922) = experiment: MIC by microbroth dilution, E. coli ATCC 25922; conditions: Escherichia coli, ATCC25922, Formula I compounds, read-out: MIC E. coli (ATCC 25922)
Description: (§1) Shown below are the microbiological activities of representative compounds of Formula I of the invention. The compounds were tested by the microbroth dilution method (National committee for Clinical Laboratory Standards, 2011, M07-08) and the Minimum Inhibitory Concentration (MIC) was determined.
(§2) Analysis of microbiological activity of compounds shown below are the microbiological activities of representative compounds of Formula II of the invention. The compounds were tested by the microbroth dilution method as per the reference in Example 1.

[1] = test system: Streptococcus pneumoniae (ATCC 6301); experiment: MIC by microbroth dilution, Streptococcus pneumoniae ATCC 6301; conditions: ATCC6301
Description: (§3) Shown below are the microbiological activities of representative compounds of Formula I of the invention. The compounds were tested by the microbroth dilution method (National committee for Clinical Laboratory Standards, 2011, […]-08) and the Minimum Inhibitory Concentration (MIC) was determined.

[2] = test system: K. pneumoniae (ATCC 700603); experiment: MIC by microbroth dilution, K. pneumoniae ATCC 700603; conditions: Klebsiella pneumoniae, ATCC700603, Formula I compounds
Description: as §1, §2

[3] = test system: Staphylococcus aureus (ATCC 29213); experiment: MIC by microbroth dilution, Staphylococcus aureus ATCC 29213; conditions: ATCC29213
Description: as §3

[4] = test system: Enterococcus faecalis (ATCC 29212); experiment: MIC by microbroth dilution, Enterococcus faecalis ATCC 29212; conditions: ATCC29212
Description: as §3

[5] = test system: Moraxella catarrhalis (ATCC 8176); experiment: MIC by microbroth dilution, Moraxella catarrhalis ATCC 8176; conditions: ATCC8176
Description: as §3

[6] = test system: Methicillin resistant Staphylococcus aureus (ATCC 33591); experiment: MIC by microbroth dilution, MRSA ATCC 33591; conditions: ATCC33591, Formula I compounds, read-out: MIC Methicillin resistant Staphylococcus aureus (ATCC 33591)
Description: as §1, §2

| Compound | MIC (E. coli (ATCC 25922)) | MIC [1] | MIC [2] | MIC [3] | MIC [4] | MIC [5] | MIC [6] |
| --- | --- | --- | --- | --- | --- | --- | --- |
| COc1ccc2ncc(C#N)c(CCN3C4CCC3CC(NCc3cc5c(cn3)OCS5)C4)c2c1 (stereo not drawn) [VT-03-00014] | 32 µg/mL (≈ 65.6 µM) | 2 µg/mL (≈ 4.1 µM) | > 128 µg/mL | 2 µg/mL (≈ 4.1 µM) | 4 µg/mL (≈ 8.2 µM) | 4 µg/mL (≈ 8.2 µM) | 4 µg/mL (≈ 8.2 µM) |
| COc1ccc2ncc(C#N)c(CCN3C4CCC3CC(NS(=O)(=O)c3ccccc3C)C4)c2c1 (stereo not drawn) [VT-03-00017] | > 32 µg/mL | > 16 µg/mL |  | > 32 µg/mL | > 64 µg/mL | > 16 µg/mL | > 32 µg/mL |
| COc1ccc2ncc(C#N)c(CCN3C4CCC3CC(NS(=O)(=O)c3ccc5c(c3)OCCO5)C4)c2c1 (stereo not drawn) [VT-03-00021] | 16 µg/mL (≈ 29.9 µM) | 1 µg/mL (≈ 1.87 µM) | > 32 µg/mL | 0.25 µg/mL (≈ 0.468 µM) | 2 µg/mL (≈ 3.74 µM) | 2 µg/mL (≈ 3.74 µM) | 0.12 µg/mL (≈ 0.224 µM) |
| COc1ccc2ncc(C#N)c(CCN3C4CCC3CC(NCc3ccc5c(c3)OCCO5)C4)c2c1 (stereo not drawn) [VT-03-00021a] | 16 µg/mL (≈ 33 µM) | 0.12 µg/mL (≈ 0.248 µM) |  | ≤ 0.03 µg/mL | 2 µg/mL (≈ 4.13 µM) | 2 µg/mL (≈ 4.13 µM) | 0.06 µg/mL (≈ 0.124 µM) |
| COc1ccc2ncc(C#N)c(CCN3C4CCC3CC(NS(=O)(=O)c3ccc5ccccc5c3)C4)c2c1 (stereo not drawn) [VT-03-00022] | > 64 µg/mL | 2 µg/mL (≈ 3.8 µM) |  | 1 µg/mL (≈ 1.9 µM) | 4 µg/mL (≈ 7.6 µM) | 4 µg/mL (≈ 7.6 µM) | 2 µg/mL (≈ 3.8 µM) |
| COc1ccc2ncc(C#N)c(CCN3C4CCC3CC(NC(=O)c3ccc5c(c3)OCCO5)C4)c2c1 (stereo not drawn) [VT-03-00024] | > 32 µg/mL | 2 µg/mL (≈ 4.01 µM) |  | 1 µg/mL (≈ 2.01 µM) | 8 µg/mL (≈ 16 µM) | 8 µg/mL (≈ 16 µM) | 2 µg/mL (≈ 4.01 µM) |
| COc1ccc2ncc(C#N)c(CCN3C4CCC3CC(NCc3ccc5c(c3)NC(=O)CS5)C4)c2c1 (stereo not drawn) [VT-03-00026] | 32 µg/mL (≈ 62.3 µM) | 1 µg/mL (≈ 1.95 µM) | 64 µg/mL (≈ 125 µM) | 2 µg/mL (≈ 3.89 µM) | 8 µg/mL (≈ 15.6 µM) | 2 µg/mL (≈ 3.89 µM) | 4 µg/mL (≈ 7.79 µM) |
| COc1ccc2ncc(C#N)c(CCN3C4CCC3CC(NCc3ccc5c(c3)NCCS5)C4)c2c1 (stereo not drawn) [VT-03-00026a] | 16 µg/mL (≈ 32 µM) | 2 µg/mL (≈ 4 µM) |  | 1 µg/mL (≈ 2 µM) | 8 µg/mL (≈ 16 µM) | 4 µg/mL (≈ 8.01 µM) | 2 µg/mL (≈ 4 µM) |
| COc1ccc2ncc(C#N)c(CCN3C4CCC3CC(NCc3cc5c(cn3)OCCO5)C4)c2c1 (stereo not drawn) [VT-03-00027] | > 32 µg/mL | 2 µg/mL (≈ 4.12 µM) |  | 2 µg/mL (≈ 4.12 µM) | 4 µg/mL (≈ 8.24 µM) | 8 µg/mL (≈ 16.5 µM) | 4 µg/mL (≈ 8.24 µM) |
| COc1ccc2ncc(C#N)c(CCN3C[C@@H]4C[C@H]3CN4CNc3ccc4c(c3)OCCO4)c2c1 [VT-03-00028] | > 32 µg/mL | 0.25 µg/mL (≈ 0.53 µM) | > 32 µg/mL | 0.25 µg/mL (≈ 0.53 µM) | 1 µg/mL (≈ 2.12 µM) | 4 µg/mL (≈ 8.48 µM) | 0.5 µg/mL (≈ 1.06 µM) |
| COc1ccc2ncc(C#N)c(CCN3C4CCC3CC(NCc3ccc5c(c3)NC(=O)CO5)C4)c2c1 (stereo not drawn) [VT-03-00030] | 8 µg/mL (≈ 16.1 µM) | 4 µg/mL (≈ 8.04 µM) | > 32 µg/mL | 2 µg/mL (≈ 4.02 µM) | 4 µg/mL (≈ 8.04 µM) | 1 µg/mL (≈ 2.01 µM) | 4 µg/mL (≈ 8.04 µM) |
| COc1ccc2ncc(C#N)c(CCN3C4CCC3CC(NCc3cc5c(cc3F)OCCO5)C4)c2c1 (stereo not drawn) [VT-03-00031] | 16 µg/mL (≈ 31.8 µM) | 1 µg/mL (≈ 1.99 µM) | > 32 µg/mL | 1 µg/mL (≈ 1.99 µM) | 2 µg/mL (≈ 3.98 µM) | 4 µg/mL (≈ 7.96 µM) | 2 µg/mL (≈ 3.98 µM) |
| COc1ccc2ncc(C#N)c(N3CC(N4CCC(NCc5ccc6c(c5)OCCO6)CC4)C3)c2c1 [VT-03-00032] | > 32 µg/mL | 4 µg/mL (≈ 8.24 µM) | > 32 µg/mL | 2 µg/mL (≈ 4.12 µM) | 8 µg/mL (≈ 16.5 µM) | 8 µg/mL (≈ 16.5 µM) | 4 µg/mL (≈ 8.24 µM) |
| COc1ccc2c(c1)c(CCN1CCC(NCc3ccc4c(c3)NC(=O)CO4)CC1)c(C#N)c(=O)n2C [VT-03-00042] | > 32 µg/mL |  |  | > 16 µg/mL |  |  | > 16 µg/mL |
| COc1ccc2c(c1)c(CCN1CCC(NCc3ccc4c(c3)OCCO4)CC1)c(C#N)c(=O)n2C [VT-03-00043] | > 32 µg/mL |  |  | 16 µg/mL (≈ 32.7 µM) |  |  | > 16 µg/mL |
| COc1ccc2ncc(C#N)c(CCN3CCC(NCc4ccc(O)c(OC)c4)CC3)c2c1 [VT-03-00046] | > 32 µg/mL |  |  | 16 µg/mL (≈ 35.8 µM) |  |  | > 16 µg/mL |
| COc1ccc2ncc(C#N)c(CCN3CCC(NCc4cccc([N+](=O)[O-])c4)CC3)c2c1 [VT-03-00049] | 32 µg/mL (≈ 71.8 µM) | 0.5 µg/mL (≈ 1.12 µM) | > 32 µg/mL | 0.12 µg/mL (≈ 0.269 µM) | 2 µg/mL (≈ 4.49 µM) | 8 µg/mL (≈ 18 µM) | 0.5 µg/mL (≈ 1.12 µM) |
| COc1ccc2ncc(C#N)c(CCN3CCC(NCc4cc([N+](=O)[O-])ccc4F)CC3)c2c1 [VT-03-00050] | 16 µg/mL (≈ 34.5 µM) | 4 µg/mL (≈ 8.63 µM) | > 16 µg/mL | 0.25 µg/mL (≈ 0.539 µM) | 4 µg/mL (≈ 8.63 µM) | 4 µg/mL (≈ 8.63 µM) | 0.5 µg/mL (≈ 1.08 µM) |
